We go through two compounds from patent US9394317B2, “Imidazo pyridine compounds” (Eli Lilly and Company, priority 2013, dated 2016).

Each structure is given as a SMILES string. Where only a bound is given, the exact number is not on record here.

Assay [1] concerns the target T1, recombinant human autotaxin (Homo sapiens, UniProt Q13822).
T1 construct: full length human autotaxin with a C-terminal His tag transfected into 293E cells; His tag (C); made in house; host or cells: 293E cells
As to the kind of experiment: Inhibition of Autotaxin as Measured by Choline Release. It is filed as biochemical. As to conditions: substrate LPC 16:0 30 μM, 37° C., 1 hour; arithmetic mean. How it is done:
The purpose of this assay is to detect autotaxin inhibition using a choline release assay.
Test compounds (10 mM stocks in 100% DMSO) are serially diluted in 100% DMSO resulting in 10 concentrations of 100× inhibitor in half area 96 well plates (Corning 3992). Each of these 10 wells in 100% DMSO is diluted 1:33.33 in assay buffer in round bottom 96 well plates (Fisher 12565502) resulting in 3× concentrations in well containing 3% DMSO. The assay buffer is 50 mM Tris pH8.0, 5 mM KCl, 1 mM CaCl2, 1 mM MgCl2, 0.01% TRITON™ X-100 (Sigma T9284) and 0.01% fatty acid free bovine serum albumin (Sigma A8806). A 20 μl aliquot of each 3× test compound is then added to black flat bottom 96 well plates (Corning 3991) in singlicate. A 20 μl aliquot per well of 3× recombinant human autotaxin (full length human autotaxin with a C-terminal His tag transfected into 293E cells and purified via nickel chelate and size exclusion chromatography) is then added to every well except for the no enzyme control wells. […] The resorufin on the plates is measured with a SpectraMax Gemini EM fluorometer at excitation-emission wavelengths of 530-590 nm using SoftMax Pro 4.8 software. IC50s are calculated using 4 parameter curve fits with the internal Lilly software OLO curve fitting tool. Results are expressed as the arithmetic mean +/− standard deviation; n=x.

The target in the next assay is T2, endogenous autotaxin (Homo sapiens, UniProt Q13822).
T2 construct: The increased endogenous LPC levels are cleaved by endogenous autotaxin; tissue Lampire Biologicals; host or cells: pooled human plasma (healthy female donors, sodium heparin)
Put plainly: Reduction of LPA in the Presence of Human Plasma. It is filed as biochemical. As to conditions: 90% pooled human plasma, 3 hours at 37° C., total LPA by mass spec; arithmetic mean. An excerpt: The following assay is intended to measure the reduction of LPA. This assay is a tool that can be used to identify selective autotaxin-mediated LPA inhibitor compounds when it is used to test compounds that have been identified as autotaxin inhibitors. LPA biosynthesis through autotaxin is believed to the source of LPA for LPA1 mediated neuropathic pain. Makoto Inoue, et. al, “Autotaxin, a synthetic enzyme of lysophosphatidic acid (LPA), mediates the induction of nerve-injured neuropathic pain”, Molecular Pain, 2008, 4:6. Targeted inhibition of the autotaxin mediated LPA biosynthesis is supported by the results of this assay.
Units of plasma from healthy human female donors collected in sodium heparin (Lampire Biologicals) are pooled, aliquoted and stored at −80° C. […] A 400 μl aliquot of extraction buffer (50% methanol, 49.9% acetonitrile, 0.1% acetic acid) containing LPA internal standards (50 ng/ml D5 deuterium LPA 16:0 and 50 ng/ml D5 deuterium LPA 18:0) is added to each well and the total LPA in each sample is determined by mass spec analysis. Percent reduction of LPA is calculated according to the following formula: 100−(3 hour plasma+test compound−0 hour plasma no test compound control)/(3 hour plasma no test compound control−0 hour plasma no test compound control)×100
IC50 values are calculated using 4 parameter curve fitting. […]

One may read the IC50 as the concentration needed to halve the response being measured. Turning to `O=C(OCC1CCc2nccn2C1)N1Cc2cnc(NC3Cc4ccccc4C3)nc2C1` (single isomer, unassigned; isomer 2) [Example 3, 5,6,7,8-tetrahydroimidazo[1,2-a]pyridin-6-ylmethyl 2-(2,3-dihydro-1H-inden-2-ylamino)-5,7-dihydro-6H-pyrrolo[3,4-d]pyrimidine-6-carboxylate isomer 2], the values for the IC50 (in assay [1]; at endogenous autotaxin) were less than 1.7 nM and 2.22 nM, respectively.

On to `O=C(OCC1Cn2ccnc2CO1)N1Cc2cnc(NC3Cc4ccccc4C3)nc2C1` (single isomer, unassigned; isomer 2) [Example 8, 5,6-dihydro-8H-imidazo[2,1-c][1,4]oxazin-6-ylmethyl 2-(2,3-dihydro-1H-inden-2-ylamino)-5,7-dihydro-6H-pyrrolo[3,4-d]pyrimidine-6-carboxylate isomer 2], for which the IC50 in assay [1] was 2.04 nM; at endogenous autotaxin it was 12.9 nM.
